Reference: patent US11629201B2, “PSMA-binding agents and uses thereof” (ITM Isotope Technologies Munich SE, priority 2017, dated 2023)
Where “and” joins values, the source holds several entries; their conditions need not be identical. Equal values may be shown once.

Columns and labels:
[1] = n-Octanol/PBS distribution coefficient (log D); type: physicochemical; conditions: radiolabeled ligand, 50 MBq/nmol, PBS pH 7.4
Description: The radioligand (0.5 MBq; 10 pmol, 25 μL) was then added to a reagent tube containing 1475 μL of PBS pH 7.4 and 1500 μL of n-octanol. The vials were vortexed vigorously followed by a centrifugation step for phase separation.
Determination of n-Octanol/PBS Distribution Coefficients (Log D Values). The distribution coefficients (log D values) of the ^64Cu-labeled radioligands (50 MBq/nmol) were determined by a shake-flask method using liquid-liquid extraction followed by phase separation as previously reported. Three experiments were performed with five replicates for each radioligand. Statistical significance of the data (p<0.05) was evaluated using an unpaired t-test (GraphPad Prism software, version 7).
Determination of n-Octanol/PBS Distribution Coefficients (Log D Values). […] A sample of the radioligands was mixed with phosphate-buffered saline (PBS) and n-octanol followed by vigorous vortexing. […] Three experiments were performed with five replicates for each compound.

human plasma proteins = test: Ultrafiltration assay, binding to human plasma proteins; conditions: different dilutions of human plasma
Description: Therefore, the compounds were labeled with ^177Lu at a specific activity of 50 MBq/nmol and incubated in human plasma samples or PBS at room temperature. The free and plasma-bound fractions were separated using a centrifree ultrafiltration device (4104 centrifugal filter units [Millipore]; 30000 Da nominal molecular weight limit, methylcellulose micropartition membranes). The incubated solution was loaded to the ultrafiltration device and centrifuged at 2500 rpm for 40 min at 20° C. Samples from the filtrate were taken an analyzed for radioactivity in a gamma-counter. The amount of plasma-bound compound was calculated as the fraction of radioactivity measured in the filtrate relative to the corresponding loading solution (set to 100%).
Determination of Albumin-binding Properties. The binding of the radioligands to human plasma proteins was determined by an ultrafiltration assay. […] Three independent experiments were performed in duplicates with both radioligands and the data was fitted to a semi-logarithmic plot (non-linear regression, one-site, specific binding) to obtain the half maximum binding (B50) in GraphPad Prism software (version 7).
The ^177Lu-labeled PSMA ligands (50 MBq/nmol) were diluted in mouse plasma (Rockland, USA) and human plasma (Stiftung Blutspende SRK Aargau-Solothurn, Switzerland), respectively, and incubated for 15 min at room temperature. In addition, the radioligands were diluted in PBS (buffer solution without proteins) as a control experiment. Aliquots of the solutions were loaded onto an ultrafiltration device and centrifuged. The filtered activity was measured with a γ-counter and used for calculating the plasma protein-bound activity (retained on the filter membrane) as the percentage of total added activity. […] Statistical analysis (one-way ANOVA with Bonferroni's multiple comparison post-test) was performed using GraphPad Prism software, version 7. A p-value of <0.05 was considered statistically significant.

[2] = system: PSMA-positive PC-3 PIP cells; test: Cell uptake and internalization in PSMA-positive PC-3 PIP cells; type: cell-based
[3] = system: PC-3 PIP/flu tumor-bearing mice; test: PET/CT imaging of PC-3 PIP/flu tumor-bearing mice; type: in vivo; conditions: 16 h after injection
Description: PET/CT Imaging Studies. PET/CT experiments were performed at 1 h, 4 h and 24 h after injection of the radioligands (5 MBq/l nmol). Mice were injected into a lateral tail vein with the respective radioligand (5 MBq, 1 nmol, 100 μL) diluted in saline containing 0.05% BSA. PET/CT scans were performed using a small-animal PET/CT scanner (G8, Perkin Elmer, Massachusetts, U.S.) as previously reported. The PET scans lasted for 10 min and were followed by a CT scan of 1.5 min. During the in vivo scans, the mice were anesthetized with a mixture of isoflurane and oxygen. Reconstruction of acquired data was performed using the software of the provider of the G8 scanner. All images were prepared using VivoQuant post-processing software (version 3.0, inviCRO Imaging Services and Software, Boston USA). The images were prepared by cutting 2% of the lower scale to make the tumors, liver and kidneys best visible.

[4] = system: PC-3 PIP/flu tumor-bearing mice; test: Biodistribution studies in PC-3 PIP/flu tumor-bearing mice; conditions: for Tu-to-muscle / Tumor-to-blood / Tumor-to-kidney / Tumor-to-liver: PC-3 PIP tumor
mouse plasma proteins = test: Ultrafiltration assay, binding to mouse plasma proteins; type: in vitro ADME
Description: Filter Assay. […] In addition, the radioligands were diluted in PBS (buffer solution without proteins) as a control experiment. Aliquots of the solutions were loaded onto an ultrafiltration device and centrifuged. The filtered activity was measured with a γ-counter and used for calculating the plasma protein-bound activity (retained on the filter membrane) as the percentage of total added activity. […] Statistical analysis (one-way ANOVA with Bonferroni's multiple comparison post-test) was performed using GraphPad Prism software, version 7. A p-value of <0.05 was considered statistically significant.

[5] = system: PSMA-negative PC-3 flu cells; test: Cell uptake in PSMA-negative PC-3 flu cells; type: cell-based
Description: Cells were grown in RPMI cell culture medium supplemented with 10% fetal calf serum, L-glutamine, antibiotics and puromycin (2 μg/mL) at 37° C. and 5% CO2 (standard conditions). Routine cell culture was performed twice a week using PBS/EDTA (2 mM) for washing the cells and trypsin for detachment of the cells. The cells were seeded in 12-well plates (˜3×10^5 cells in 2 mL RPMI medium/well) allowing adhesion and growth overnight at standard conditions. The supernatant was removed and the cells washed with PBS pH 7.4 prior to the addition of RPMI medium without supplements (975 μL/well). […] After incubation, the cells were washed three times with ice-cold PBS and the total uptake of the radioligands was determined (PSMA-bound fraction on the surface and internalized fraction). The fraction of internalized radioligand was evaluated in cells washed with ice-cold PBS, followed by a 10 min incubation with stripping buffer (0.05 M glycine stripping buffer in 100 mM NaCl, pH 2.8) and an additional washing step with ice-cold PBS. […] After homogenization of the cell suspensions, the protein concentration was determined for each sample using a Micro BCA Protein Assay kit (Pierce, Therma Scientific). The results were expressed as percentage of total added radioactivity per […]. […]

[6] = Stability of radioligands over time by RP-HPLC; type: physicochemical
Description: Quality control of ^64Cu-labeled PSMA ligands (250 MBq in 120 μL; 50 MBq/nmol) was determined immediately after preparation (t=0 h) using RP-HPLC. The reaction mixtures were diluted in saline to an activity concentration of 250 MBq/500 μL and incubated at room temperature. The integrity of the compounds was investigated over one day (t=1 h, 4 h and 24 h, respectively). The amount of intact radioligand was quantified by integration of the product peak of the HPLC chromatograms in relation to the sum of all radioactive peaks of degradation products of unknown structure and traces of released ^64Cu which were set to 100%.
The stability of the radioligands was determined over time using RP-HPLC. […] The radiolabeling efficiency of the ligands was determined immediately after preparation (t=0 h) and the integrity of the compounds was investigated after incubation for various periods (t=1 h, 4 h and 24 h, respectively) at room temperature. The amount of intact compound was quantified by integration of the product peak of the HPLC chromatograms in relation to the sum of all radioactive peaks of degradation products of unknown structure and traces of free ^177Lu, which were set to 100%.

PC-3 PIP tumor = test: Therapy study in PC-3 PIP tumor-bearing mice; type: in vivo; conditions: for TGDI2 / TGDI5: control = 1
From the text: Mice of Groups B and D received 2 MBq of the radioligand (1 nmol/mouse), whereas mice of Groups C and E received 5 MBq of the radioligand (1 nmol/mouse). The mice were monitored by measuring body weights and the tumor size every other day over 12 weeks. Mice were euthanized when pre-defined endpoint criteria were reached, or when the study was terminated at Day 84. The relative body weight (RBW) was defined as [BWx/BW0], where BWx is the body weight in gram at a given day x and BW0 the body weight in gram at day 0. The tumor dimension was determined by measuring the longest tumor axis (L) and its perpendicular axis (W) with a digital caliper. The tumor volume (V) was calculated according to the equation [V=0.5*(L*W2)]. The relative tumor volume (RTV) was defined as [TVx/TV0], where TVx is the tumor volume in mm3 at a given day x and TV0 the tumor volume in mm3 at Day 0.
The efficacy of the radionuclide therapy was expressed as the tumor growth delay (TGDx), which was calculated as the time required for the tumor volume to increase x-fold over the initial volume at the Day 0. The tumor growth delay index [TGDIx=TGDx(T)/TGDx(C)] was calculated as the TGDx ratio of treated mice (T) over control mice (C) for a 2-fold (x=2, TGD2) and 5-fold (x=5, TGD5) increase of the initial tumor volume. As a measure to identify undesired side effects, body weights were compared at the day when the first control mouse had to be euthanized. After euthanasia, kidneys, liver and the brain were collected and weighed. The organ ratios (kidney-to-brain and liver-to-brain) were calculated using the organ masses obtained at the day of euthanasia.
The data was analyzed for significance as indicated in the result part using a one-way ANOVA with Tukey's multiple comparison post-test using GraphPad Prism software (version 7). A value of p<0.05 was considered statistically significant. Survival analysis was performed with Kaplan-Meier curves and a log-rank tests (Mantel Cox).

[7] = non-decay-corrected biodistribution data up to 192 h p.i.

SMILES: Cc1ccc(CCCC(=O)NCCCC[C@H](NC(=O)CCC(C(=O)O)N2CCN(CC(=O)O)CCN(CC(=O)O)CC2)C(=O)NC[C@H]2CC[C@H](C(=O)N[C@H](Cc3ccc4ccccc4c3)C(=O)NCCCC[C@@H](NC(=O)N[C@H](CCC(=O)O)C(=O)O)C(=O)O)CC2)cc1 (some centres unmarked) [^64Cu-PSMA-ALB-89, metal not drawn]
- logD ([1]; n-octanol/PBS): -2.3 ± 0.7
- half-maximum binding (B50), [HSA]-to-[radioligand] ratio (human plasma proteins): 454 and 770
- cell uptake ([2]; 2 h): ~46%
- internalized fraction ([2]; 2 h): ~14%
- cell uptake ([2]; 4 h): ~52%
- internalized fraction ([2]; 4 h): ~14%
- tumor-to-kidney ratio of accumulated radioligand (visual examination) [3]: > 1
- Tu-to-muscle ([4]; 1 h p.i.): 9.0 ± 1.13
- Tumor-to-blood ([4]; 1 h p.i.): 0.91 ± 0.02
- Tumor-to-kidney ([4]; 1 h p.i.): 0.40 ± 0.02
- Tumor-to-liver ([4]; 1 h p.i.): 3.37 ± 0.31
- Tu-to-muscle ([4]; 4 h p.i.): 36.3 ± 2.25
- Tumor-to-blood ([4]; 4 h p.i.): 3.61 ± 0.30
- Tumor-to-kidney ([4]; 4 h p.i.): 0.70 ± 0.04
- Tumor-to-liver ([4]; 4 h p.i.): 13.3 ± 1.20
- Blood ([4]; 24 h p.i.): < 3.2 % IA/g
- PC-3 PIP Tumor ([4]; 24 h p.i.): 97.1±7.01 % IA/g
- Tu-to-muscle ([4]; 24 h p.i.): 200±38.2
- Tumor-to-blood ([4]; 24 h p.i.): 31.3 ± 3.82
- Tumor-to-kidney ([4]; 24 h p.i.): 2.68 ± 0.36
- Tumor-to-liver ([4]; 24 h p.i.): 23.6 ± 3.37

SMILES: O=C([O-])CN1CCN(CC(=O)[O-])CCN(CC(=O)NCC2CCC(C(=O)N[C@@H](Cc3ccc4ccccc4c3)C(=O)NCCCC[C@H](NC(=O)N[C@@H](CCC(=O)O)C(=O)O)C(=O)O)CC2)CCN(CC(=O)[O-])CC1.[177Lu+3] (some centres unmarked) [^177Lu-PSMA-617, reference compound]
- plasma protein-bound fraction (mouse plasma proteins): 9.3±1.1%
- n-octanol/PBS distribution coefficient (log D value) [1]: −4.4±0.15
- uptake in PC-3 flu cells [5]: below 0.5%
- intact compound ([6]; after 4 h, absence of L-ascorbic acid): ~86%
- intact compound ([6]; after 24 h, absence of L-ascorbic acid): < 2%
- intact compound ([6]; after 24 h, with L-ascorbic acid): > 98%
- cell uptake ([2]; 4 h incubation, PC-3 PIP cells): 58%
- internalized fraction ([2]; 4 h incubation, PC-3 PIP cells): 12%
- PC-3 PIP Tumor ([4]; 4 h p.i.): ~56 % IA/g
- Kidneys ([4]; 24 h p.i.): < 1 % IA/g
- Tumor-to-blood ([4]; 24 h p.i.): 2730 ± 195
- Tumor-to-kidney ([4]; 24 h p.i.): 49 ± 3.7
- Tumor-to-liver ([4]; 24 h p.i.): 528 ± 51
- Tumor-to-blood ([4]; 48 h p.i.): 3776 ± 585
- Tumor-to-kidney ([4]; 48 h p.i.): 81 ± 11
- Tumor-to-liver ([4]; 48 h p.i.): 710 ± 97
- PC-3 PIP Tumor ([4]; 192 h p.i.): ~20 % IA/g
- AUC PC-3 PIP tumor [4, 7]: 3691 ± 156 % IA/g · h
- AUC blood [4, 7]: 52 ± 1.5 % IA/g · h
- AUC kidneys [4, 7]: 99 ± 11 % IA/g · h
- AUC liver [4, 7]: 6.2 ± 1.6 % IA/g · h
- Ratio of AUCs AUCTu-to-AUCBl ([4]; tumor to blood): 71
- Ratio of AUCs AUC-Tu-to-AUC-Ki ([4]; tumor to kidneys): 37
- Ratio of AUCs AUCTu-to-AUCLi ([4]; tumor to liver): 592
- first mouse of group euthanized (PC-3 PIP tumor; 2 MBq/mouse (Groups B, D)): 12 days
- median survival (PC-3 PIP tumor; 2 MBq/mouse (Groups B, D)): 19 days
- TGDI2 (PC-3 PIP tumor; 2 MBq/mouse (Groups B, D)): 0.8 and 0.8 ± 0.3
- TGDI5 (PC-3 PIP tumor; 2 MBq/mouse (Groups B, D)): 1.4 and 1.4 ± 0.1
- first mouse of group euthanized (PC-3 PIP tumor; 5 MBq/mouse (Groups C, E)): 26 days
- median survival (PC-3 PIP tumor; 5 MBq/mouse (Groups C, E)): 32 days
- TGDI2 (PC-3 PIP tumor; 5 MBq/mouse (Groups C, E)): 2.1 ± 0.3
- TGDI5 (PC-3 PIP tumor; 5 MBq/mouse (Groups C, E)): 2.5 ± 0.3
